Results from patent publication US4018782A, “2,2-Dimethyl-3R-carboxy-6S- acylamido-1-oxa-4-aza-5R-bicyclo[3,2,0]heptan-7-ones” (Queen's University, priority 1974, dated 1977).

Legend:
S. lutea = test: antibacterial activity (plate assay) vs S. lutea; assay type: cell-based
Protocol: The oxazoline (74 mg., 0.236 mmole) was dissolved in HMPT (1.5 ml.) and the solution was degassed with dry nitrogen for 0.5 hr. Then 0.83 ml. of a 0.612 M solution of t-BuSLi (0.508 mmole), prepared by method A, was added during 0.5 hr. and the mixture was stirred overnight. […] The characteristic peak of the oxazolinecarboxylic acid, 2-benzyl-6-(1'-carboxy-2'-methyl-prop-1'-enyl)-1-oxa-3,6-diaza-4S,5R-bicyclo [3,2,0] hept-2-ene-7-one, were absent from the spectrum.

[1] = antibacterial activity (organism not stated); assay type: cell-based; settings: at levels of 250 mcg./ml.

SMILES: CC(Oc1ccc(Cl)cc1)C(=O)N[C@@H]1C(=O)N2[C@@H]1OC(C)(C)[C@@H]2C(=O)O (stereo partly drawn)
- antibacterial activity vs. S. lutea (S. lutea): high antibacterial activity

SMILES: CC1(C)O[C@@H]2[C@H](N3C(=O)c4ccccc4C3=O)C(=O)N2[C@H]1C(=O)O [6-phthalimido oxapenicillin]
- antibacterial activity versus S. lutea relative to phthalimidopenicillin (S. lutea; compared with phthalimidopenicillin): one-tenth the level of phthalimidopenicillin

SMILES: CC(C)=C(C(=O)O)N1C(=O)[C@H]2N=C(Cc3ccccc3)O[C@H]21 [oxazoline carboxylic acid, 2-benzyl-6-(1'-carboxy-2'-methylprop-1'-enyl)-1-oxa-3,6-diaza-4S,5R-bicyclo [3.2.0] hept-2-en-7-one]
- antibacterial activity at 250 mcg./ml. [1]: inactive
